Patent US20220127297A1, “Novel Antibacterial 3"-Derivatives Of 4,6-Disubstituted 2,5-Dideoxystreptamine Aminoglycoside Antibiotics” (AGILeBiotics B.V., priority 2018, published 2022)
Converted amounts (≈) assume the structure as drawn.

Assays:
Test in all cases: MIC 90, resistant ATCC strains of the ESKAPE panel
Type in all cases: cell-based
[1] = tested on: A. baumannii ATCC BAA-1800; conditions: Acinetobacter baumannii, ATCCBAA1800, MDR
From the text: (§1) 3.3 Protocol for MIC Determination (ATCC Strains)
(§2) Tested reference compounds. Amikacin sulfate (Cat. No. 01693, Chem-Impex), Gentamicin sulfate (Cat. No. G4918, Sigma Aldrich), Azithromycin (Cat. No. 1046056, USP), Ceftazidime Pentahydrate (Cat. No. 1098130, USP), Ciprofloxacin (Cat. No. 1134313, USP), Meropenem (Cat. No. 1392454, USP), Rifampicin (Cat. No. R0079, TCI), Tobramycin (Cat. No. 1667508, USP), Vancomycin (Cat. No. 1709007 USP).
(§3) Microbial strains. Staphylococcus aureus ATCC 29213, Staphylococcus aureus ATCC BAA-1717, Escherichia coli ATCC BAA-1025, Klebsiella pneumoniae ATCC BAA-1705, Klebsiella pneumoniae ATCC BAA-2524, Pseudomonas aeruginosa ATCC 27853, Pseudomonas aeruginosa ATCC BAA-2108, Acinetobacter baumannii ATCC BAA-1800.
(§4) Culture media and equipment. BBL™ Mueller Hinton Broth (REF 275730, Lot. 7009699, Becton Dickinson), Mueller Hinton Agar 2 (Ref. No. 97580-500G-F, Lot. No. BCBV4646, Sigma), Dulbecco's Modified Eagle's Medium (DMEM) (Cat. No. 41966-029, Gibco), Minimum Essential Medium (MEM) (Cat. No. 42360-024, Gibco), Fetal bovine serum (FBS) (Cat. No. F7524, Sigma), Non-essential amino acids (NEAA) (100×, Cat. No. 11140-035, Gibco), Sodium Pyruvate (100 mM, 100×, Cat. No. 11360-039, Gibco), Staurosporine (Cat. No. B50188, Biotrend), Cellstar 96-well plates U-bottom (Cat. No. 650180, Lot. No. E14123EB, Greiner Bio-one), CellTiter-Glo (Cat. No. G7573, Promega), 96-well plate V-bottom (Cat. No. 651201, Greiner), 96-well clear plate, U-bottom, (Cat. No. 650180, Greiner), 96-well white plate with clear bottom (Cat. No. 655098, Greiner), 96-well deep well plate 1 mL (Cat. No. 278606, Nunc), Sodium Pyruvate (100 mM, 100×, Gibco, Cat #11360-039), Incubator (Binder), Laminar flow (Thermo Scientific), BioPhotometer (Eppendorf); DEN-1B (McFarland Densitometer, Biosan); McFarland standards (polymer microparticle suspension, Biosan).
(§5) Compound preparation. The test compounds and reference antibiotics were prepared according to CLSI guidelines (Clinical and Laboratory Standards Institute (CLSI); Methods for dilution antimicrobial susceptibility tests for bacteria that grow aerobically; approved standard—ninth edition, M07-A9, Vol. 32, No. 2, 2012) as 5 mg/mL stock solutions in DMSO. Out of these DMSO solutions, 43.5 μL was transferred to 1656.5 μL of MH media in a deep well plate. Out of these working solutions 100 μL was transferred to wells in the third column of 96-well plates. Plates were previously filled with 50 μL of MH media in all wells except for the wells in the third column. After compound and antibiotic addition, 50 μL was transferred from the third to the fourth column, then from the fourth to the fifth and so on. In this manner, the compounds and antibiotics were plated in 96-well plate in serial two-fold dilutions giving a final concentration range of 64-0.125 μg/mL.
(§6) Preparation of microorganisms. Designations used for clinical isolates were from the Fidelta strain collection bank. Microorganisms used were all revived from skim milk storage at −70° C. by plating them on MH agar plates. The following day the single colony of each microorganism was again streaked on fresh agar plates. The next day, using the direct colony suspension method, broth solutions that achieve turbidity equivalent to 0.5 McFarland standard for each microorganism were prepared. […] Out of these suspensions, actual inoculums were prepared by diluting them 100× with MH media giving a final microorganism count of 2-8×10^5 CFU/mL. For each strain of microorganisms, 20 mL of these inoculum solutions were prepared. From the second to the twelfth column of 96-well plates, 50 μL of these solutions were transferred per well. To the first column, 50 μL per well of pure growth media was added. In this manner the first column was used as sterility control of media, the second column was used as control of microorganism's growth and the rest of the plate was used for MIC determination. All plates were incubated for 16-24 h at 37° C. […]

[2] = tested on: K. pneumoniae ATCC BAA-1705; conditions: Klebsiella pneumoniae, ATCCBAA1705, KPC
From the text: as §1, §2, §3, §4, §5, §6

[3] = tested on: K. pneumoniae ATCC BAA-2524; conditions: Klebsiella pneumoniae, ATCCBAA2524, OXA-48
From the text: as §1, §2, §3, §4, §5, §6

[4] = tested on: P. aeruginosa ATCC BAA-2108; conditions: Pseudomonas aeruginosa, ATCCBAA2108, MDR
From the text: as §1, §2, §3, §4, §5, §6

S. aureus ATCC BAA-1717 = conditions: Staphylococcus aureus, MRSA
From the text: as §1, §2, §3, §4, §5, §6

Row | SMILES | MIC90 [1] | MIC90 [2] | MIC90 [3] | MIC90 [4] | MIC90 (S. aureus ATCC BAA-1717)
1 | CNCCNC(=N)NC1[C@@H](O)C(OC2[C@@H](F)[C@H](O[C@H]3OC(CN)[C@@H](O)CC3N)C(N)C[C@H]2NC(=O)[C@@H](O)CCN)O[C@H](CO)[C@H]1O (some centres unmarked) [ABX5038, Tobra-AHB-F-Gua 2-(methylamino)ethyl] | 32 µg/mL (≈ 47.8 µM) | 8 µg/mL (≈ 11.9 µM) | 0.5 µg/mL (≈ 0.747 µM) | 4 µg/mL (≈ 5.97 µM) | 0.5 µg/mL (≈ 0.747 µM)
2 | N=C(NC[C@H]1CCNC1)NC1[C@@H](O)C(OC2[C@@H](F)[C@H](O[C@H]3OC(CN)[C@@H](O)CC3N)C(N)C[C@H]2NC(=O)[C@@H](O)CCN)O[C@H](CO)[C@H]1O (stereo partly drawn) [ABX5042, Tobra-AHB-F-Gua (S) pyrrolidine-3-ylmethyl] | 32 µg/mL (≈ 46 µM) | 4 µg/mL (≈ 5.75 µM) | 0.5 µg/mL (≈ 0.719 µM) | 8 µg/mL (≈ 11.5 µM) | 0.5 µg/mL (≈ 0.719 µM)
3 | NCC[C@H](O)C(=O)N[C@@H]1C[C@H](N)[C@@H](O[C@H]2O[C@H](CN)[C@@H](O)[C@H](O)[C@H]2O)[C@H](O)[C@H]1O[C@H]1O[C@H](CO)[C@@H](O)[C@H](N)[C@H]1O [Amikacin, amikacin, reference compound] | 64 µg/mL (≈ 109 µM) | 32 µg/mL (≈ 54.6 µM) | 0.5 µg/mL (≈ 0.854 µM) | 16 µg/mL (≈ 27.3 µM) | 4 µg/mL (≈ 6.83 µM)
4 | N=C(NC[C@@H]1CNCCO1)NC1[C@@H](O)C(OC2[C@@H](F)[C@H](O[C@H]3OC(CN)[C@@H](O)CC3N)C(N)C[C@H]2NC(=O)[C@@H](O)CCN)O[C@H](CO)[C@H]1O (stereo partly drawn) [ABX5040, Tobra-AHB-F-Gua (S) morpholin-2-yl methyl] | 32 µg/mL (≈ 45 µM) | 8 µg/mL (≈ 11.2 µM) | 0.5 µg/mL (≈ 0.702 µM) | 8 µg/mL (≈ 11.2 µM) | 0.5 µg/mL (≈ 0.702 µM)
5 | N=C(NCCN)NC1C(O)[C@@H](CO)OC(OC2C(F)[C@H](O[C@H]3OC(CN)[C@@H](O)CC3N)C(N)C[C@H]2NC(=O)[C@@H](O)CCN)[C@@H]1O (some centres unmarked) [ABX5020, Tobra-AHB-F-Gua-2-amino-ethyl] | 32 µg/mL (≈ 48.8 µM) | 8 µg/mL (≈ 12.2 µM) | 0.5 µg/mL (≈ 0.763 µM) | 2 µg/mL (≈ 3.05 µM) | 0.25 µg/mL (≈ 0.381 µM)
6 | N=C(NC[C@@H]1CCNC1)NC1[C@@H](O)C(OC2[C@@H](F)[C@H](O[C@H]3OC(CN)[C@@H](O)CC3N)C(N)C[C@H]2NC(=O)[C@@H](O)CCN)O[C@H](CO)[C@H]1O (stereo partly drawn) [ABX5039, Tobra-AHB-F-Gua (R) pyrrolidine-3-ylmethyl] | 16 µg/mL (≈ 23 µM) | 4 µg/mL (≈ 5.75 µM) | 0.5 µg/mL (≈ 0.719 µM) | 8 µg/mL (≈ 11.5 µM) | 0.5 µg/mL (≈ 0.719 µM)
7 | N=C(N)NC1C(O)[C@@H](CO)OC(OC2C(F)[C@H](O[C@H]3OC(CN)[C@@H](O)CC3N)C(N)C[C@H]2NC(=O)[C@@H](O)CCN)[C@@H]1O (some centres unmarked) [ABX5006, Tobra-AHB-F-Gua] | 16 µg/mL (≈ 26.1 µM) | 2 µg/mL (≈ 3.26 µM) | < 0.125 µg/mL | 4 µg/mL (≈ 6.53 µM) | 0.5 µg/mL (≈ 0.816 µM)
8 | N=C(N)NC1[C@@H](O)C(OC2[C@@H](F)[C@H](O[C@H]3OC(CN)[C@@H](O)[C@H](O)C3N)C(N)C[C@H]2NC(=O)[C@@H](O)CCN)O[C@H](CO)[C@H]1O (some centres unmarked) [ABX4006, KanaB-AHB-F-Gua] | 16 µg/mL (≈ 25.5 µM) | 2 µg/mL (≈ 3.18 µM) | < 0.125 µg/mL | 16 µg/mL (≈ 25.5 µM) | 4 µg/mL (≈ 6.36 µM)
9 | N=C(NCCO)NC1[C@@H](O)C(OC2[C@@H](F)[C@H](O[C@H]3OC(CN)[C@@H](O)CC3N)C(N)C[C@H]2NC(=O)[C@@H](O)CCN)O[C@H](CO)[C@H]1O (some centres unmarked) [ABX5029, Tobra-AHB-F-Gua 2-hydroxy-ethyl] | 16 µg/mL (≈ 24.4 µM) | 4 µg/mL (≈ 6.09 µM) | 0.25 µg/mL (≈ 0.381 µM) | 4 µg/mL (≈ 6.09 µM) | 0.5 µg/mL (≈ 0.761 µM)
10 | N=C(NC[C@@H]1CCCN1)NC1[C@@H](O)C(OC2[C@@H](F)[C@H](O[C@H]3OC(CN)[C@@H](O)CC3N)C(N)C[C@H]2NC(=O)[C@@H](O)CCN)O[C@H](CO)[C@H]1O (stereo partly drawn) [ABX5026, Tobra-AHB-F-Gua (S) pyrrolidine-2-yl-methyl] | 32 µg/mL (≈ 46 µM) | 4 µg/mL (≈ 5.75 µM) | 0.5 µg/mL (≈ 0.719 µM) | 8 µg/mL (≈ 11.5 µM) | 0.5 µg/mL (≈ 0.719 µM)
